According to PMC11845761, “Intestinal human carboxylesterase 2 (CES2) expression rescues drug metabolism and most metabolic syndrome phenotypes in global Ces2 cluster knockout mice” (Acta Pharmacologica Sinica, 2024):

What was measured:
[1] = Tissue concentrations of vinorelbine and deacetylvinorelbine 4 h after oral vinorelbine in CES2-modified mice; assay type: in vivo, mouse; details: oral vinorelbine 10 mg/kg
Experimental: For capecitabine 2-h experiments, 6–7 female mice received oral capecitabine (500 mg/kg, 10 μL/g), and tail vein blood samples were collected at 0.125, 0.25, 0.5 and 1 h after drug administration. For the vinorelbine 4-h experiment, 6-7 male mice received vinorelbine intravenously (10 mg/kg, 5 μL/g) or orally (10 mg/kg, 10 μL/g) using a blunt-ended needle. Tail vein blood samples were collected at 0.125, 0.25, 0.5, 1 and 2 h after drug administration. […] At the last time point in each experiment (2 or 4 h), mice were anesthetized with 5% isoflurane and blood was collected by cardiac puncture. […] Plasma was isolated from the blood by centrifugation at 9000 × g for 6 min at 4 °C, and the plasma fraction was collected and stored at −30 °C until analysis.
(§1) Concentrations of capecitabine (and its metabolites) and vinorelbine (and its metabolite) in mouse plasma samples and organ homogenates were determined using two independent validated high-performance liquid chromatography-tandem mass spectrometry assays.
Pharmacokinetic parameters were calculated by non-compartmental methods using the PK solver software. […] Differences were considered statistically significant when P < 0.05. All data are presented as mean ± SD.

[2] = Plasma pharmacokinetics of vinorelbine and deacetylvinorelbine after i.v. vinorelbine in CES2-modified mice; details: i.v. vinorelbine 10 mg/kg; for AUC0-4h / AUC0-4h ratio (× 10^−3) (deacetylvinorelbine/vinorelbine) / Cmax / Tmax: plasma
Experimental: In order to minimize variation among individuals, mice were fasted for 3 h before drug was administered orally or intravenously. […] For the vinorelbine 4-h experiment, 6-7 male mice received vinorelbine intravenously (10 mg/kg, 5 μL/g) or orally (10 mg/kg, 10 μL/g) using a blunt-ended needle. […] Time points of termination were chosen to allow both reasonable assessment of the plasma exposure of the compound and its main metabolites, and adequate measurement of tissue concentrations. In order to minimize the generation and use of mice, and as no pronounced sex differences were expected, female mice were used for the capecitabine studies and male mice for the vinorelbine studies. Tail vein blood sample collection (~50 μL) was performed using microvettes containing dipotassium-EDTA. All blood samples were rapidly placed on ice to limit any ongoing hydrolysis. At the last time point in each experiment (2 or 4 h), mice were anesthetized with 5% isoflurane and blood was collected by cardiac puncture. Cardiac puncture blood samples (600–800 μL) were collected in Eppendorf tubes containing heparin as an anticoagulant. The mice were then sacrificed by cervical dislocation and brain, liver, kidney, lung, small intestine and testis were rapidly removed. Plasma was isolated from the blood by centrifugation at 9000 × g for 6 min at 4 °C, and the plasma fraction was collected and stored at −30 °C until analysis. Organs were homogenized with 4% (w/v) bovine serum albumin and stored at −30 °C until analysis. Relative metabolite-to-parental drug ratio after drug administration was calculated by determining metabolite tissue concentration relative to corresponding parental drug concentration at the last time point.
as §1
Pharmacokinetic parameters were calculated by non-compartmental methods using the PK solver software. The area under the plasma concentration-time curve (AUC) was calculated using the trapezoidal rule, without extrapolating to infinity. The peak plasma concentration (Cmax) and the time of maximum plasma concentration (Tmax) were estimated from the original (individual mouse) data. One-way analysis of variance (ANOVA) was used when multiple groups were compared and the Tukey’s test post hoc correction was used to accommodate multiple testing. The two-sided unpaired Student’s t-test was used when treatments or differences between two specific groups were compared. Kruskal-Wallis rank test was used for semi-quantitative assessment for (H&E)-staining of white adipose tissue and Oil Red O-staining of liver. All statistical analyses were performed using the software GraphPad Prism 8 (GraphPad Software Inc., La Jolla, CA, USA). All the linear data were log-transformed before statistical tests were applied. Differences were considered statistically significant when P < 0.05. All data are presented as mean ± SD.

CCC1=C[C@@H]2CN(C1)Cc1c([nH]c3ccccc13)[C@@](C(=O)OC)(c1cc3c(cc1OC)N(C)[C@H]1[C@@](O)(C(=O)OC)[C@H](O)[C@]4(CC)C=CCN5CC[C@]31[C@@H]54)C2 [Deacetylvinorelbine, 4’-O-deacetylvinorelbine]
CSI (small intestine tissue concentration) ([1]; male Ces2^–/– mice): 625 ± 219 ng/g
CSIC (small intestine contents concentration) ([1]; male Ces2^–/– mice): 1091 ± 405 ng/g
Ccolon (colon concentration) ([1]; male Ces2^–/– mice): 5.0 ± 2.1 ng/g
Cliver (liver concentration) ([1]; male Ces2^–/– mice): 82 ± 29 ng/g
Colon Ratio (x 10^-3) (deacetylvinorelbine /vinorelbine) ([1]; male Ces2^–/– mice): 8.4 ± 1.5 x 10^-3
Liver Ratio (x 10^-3) (deacetylvinorelbine /vinorelbine) ([1]; male Ces2^–/– mice): 15 ± 7.5 x 10^-3
Small intestine Ratio (x 10^-3) (deacetylvinorelbine /vinorelbine) ([1]; male Ces2^–/– mice): 34 ± 10.0 x 10^-3
Small intestine contents Ratio (x 10^-3) (deacetylvinorelbine /vinorelbine) ([1]; male Ces2^–/– mice): 6.7 ± 1.4 x 10^-3
liver deacetylvinorelbine-to-vinorelbine ratio, fold decrease vs wild-type ([1]; male Ces2^–/– mice): 333 fold
small intestine tissue deacetylvinorelbine-to-vinorelbine ratio ([1]; male Ces2^–/– mice): 0.034 ± 0.010
CSI (small intestine tissue concentration) ([1]; male Ces2^–/–A mice): 748 ± 225 ng/g
CSIC (small intestine contents concentration) ([1]; male Ces2^–/–A mice): 1120 ± 623 ng/g
Ccolon (colon concentration) ([1]; male Ces2^–/–A mice): 6.0 ± 2.6 ng/g
Cliver (liver concentration) ([1]; male Ces2^–/–A mice): 162 ± 52 ng/g
Colon Ratio (x 10^-3) (deacetylvinorelbine /vinorelbine) ([1]; male Ces2^–/–A mice): 7.8 ± 2.6 x 10^-3
Liver Ratio (x 10^-3) (deacetylvinorelbine /vinorelbine) ([1]; male Ces2^–/–A mice): 19 ± 1.7 x 10^-3
Small intestine Ratio (x 10^-3) (deacetylvinorelbine /vinorelbine) ([1]; male Ces2^–/–A mice): 39 ± 8.0 x 10^-3
Small intestine contents Ratio (x 10^-3) (deacetylvinorelbine /vinorelbine) ([1]; male Ces2^–/–A mice): 5.9 ± 1.6 x 10^-3
liver deacetylvinorelbine-to-vinorelbine ratio, fold decrease vs wild-type ([1]; male Ces2^–/–A mice): 263 fold
small intestine tissue deacetylvinorelbine-to-vinorelbine ratio ([1]; male Ces2^–/–A mice): 0.039 ± 0.008
CSI (small intestine tissue concentration) ([1]; male Ces2^–/–V mice): 808 ± 578 ng/g
CSIC (small intestine contents concentration) ([1]; male Ces2^–/–V mice): 957 ± 441 ng/g
Ccolon (colon concentration) ([1]; male Ces2^–/–V mice): 8.1 ± 4.8 ng/g
Cliver (liver concentration) ([1]; male Ces2^–/–V mice): 178 ± 110 ng/g
Colon Ratio (x 10^-3) (deacetylvinorelbine /vinorelbine) ([1]; male Ces2^–/–V mice): 13 ± 3.7 x 10^-3
Liver Ratio (x 10^-3) (deacetylvinorelbine /vinorelbine) ([1]; male Ces2^–/–V mice): 21 ± 7.8 x 10^-3
Small intestine Ratio (x 10^-3) (deacetylvinorelbine /vinorelbine) ([1]; male Ces2^–/–V mice): 49 ± 15 x 10^-3
Small intestine contents Ratio (x 10^-3) (deacetylvinorelbine /vinorelbine) ([1]; male Ces2^–/–V mice): 8.4 ± 3.4 x 10^-3
liver deacetylvinorelbine-to-vinorelbine ratio, fold decrease vs wild-type ([1]; male Ces2^–/–V mice): 238 fold
small intestine tissue deacetylvinorelbine-to-vinorelbine ratio ([1]; male Ces2^–/–V mice): 0.049 ± 0.015
CSI (small intestine tissue concentration) ([1]; male wild-type mice): 9590 ± 4337 ng/g
CSIC (small intestine contents concentration) ([1]; male wild-type mice): 15491 ± 4320 ng/g
Ccolon (colon concentration) ([1]; male wild-type mice): 369 ± 240 ng/g
Cliver (liver concentration) ([1]; male wild-type mice): 7589 ± 2725 ng/g
Colon Ratio (x 10^-3) (deacetylvinorelbine /vinorelbine) ([1]; male wild-type mice): 1000 ± 390 x 10^-3
Liver Ratio (x 10^-3) (deacetylvinorelbine /vinorelbine) ([1]; male wild-type mice): 5000 ± 1000 x 10^-3
Small intestine Ratio (x 10^-3) (deacetylvinorelbine /vinorelbine) ([1]; male wild-type mice): 880 ± 220 x 10^-3
Small intestine contents Ratio (x 10^-3) (deacetylvinorelbine /vinorelbine) ([1]; male wild-type mice): 220 ± 73 x 10^-3
liver deacetylvinorelbine-to-vinorelbine ratio ([1]; male wild-type mice): 5.0 ± 1.0
small intestine tissue deacetylvinorelbine-to-vinorelbine ratio ([1]; male wild-type mice): 0.88 ± 0.22
AUC0-4h ([2]; male Ces2^–/– mice): 10.1 ± 2.3 ng·h/mL
AUC0-4h ratio (× 10^−3) (deacetylvinorelbine/vinorelbine) ([2]; male Ces2^–/– mice): 1.7 ± 0.2 × 10^−3
Cmax ([2]; male Ces2^–/– mice): 5.9 ± 1.4 ng/mL
Tmax ([2]; male Ces2^–/– mice): 7.8 ± 0 min
plasma AUC0-4h, fold decrease vs wild-type ([2]; male Ces2^–/–A mice): 55.5 fold
AUC0-4h ([2]; male Ces2^–/–A mice): 12.0 ± 3.8 ng·h/mL
AUC0-4h ratio (× 10^−3) (deacetylvinorelbine/vinorelbine) ([2]; male Ces2^–/–A mice): 2.2 ± 0.5 × 10^−3
Cmax ([2]; male Ces2^–/–A mice): 7.6 ± 2.7 ng/mL
Tmax ([2]; male Ces2^–/–A mice): 15 ± 11.4 min
plasma AUC0-4h, fold decrease vs wild-type ([2]; male Ces2^–/–V mice): 41.1 fold
AUC0-4h ([2]; male Ces2^–/–V mice): 16.2 ± 8.4 ng·h/mL
AUC0-4h ratio (× 10^−3) (deacetylvinorelbine/vinorelbine) ([2]; male Ces2^–/–V mice): 1.7 ± 0.2 × 10^−3
Cmax ([2]; male Ces2^–/–V mice): 8.2 ± 3.5 ng/mL
Tmax ([2]; male Ces2^–/–V mice): 10.2 ± 4.2 min
AUC0-4h ([2]; male wild-type mice): 666 ± 138 ng·h/mL
AUC0-4h ratio (× 10^−3) (deacetylvinorelbine/vinorelbine) ([2]; male wild-type mice): 110 ± 60 × 10^−3
Cmax ([2]; male wild-type mice): 346 ± 104 ng/mL
Tmax ([2]; male wild-type mice): 27.6 ± 45.6 min
